# *1 amine or outer side, *2 acyl side, *3 side chain or, on linkers, in order; H or OH if unused. Where a SMILES comes first, the peptide text is derived from it. Bridges are numbered along the chain shown (N, C = ends). Side-chain parts run from the residue outwards. [ ]: non-standard residue; d: D form. The star is where a group is joined. X5 = NC(=O)[C@H](CCCCNC(=O)CN1CCN(CC(=O)O)CCN(CC(=O)O)CCN(CC(=O)O)CC1)NC(=O)CCC(=O)NCCCOCCOCCOCCCN*; DOTA(Ga) = O=C1CN2CCN3CCN(CC(=O)*)CCN(CC2)CC(=O)[O][Ga]([O]1)[O]C(=O)C3; DOTA(Lu) = O=C1CN2CCN3CCN(CC(=O)*)CCN(CC2)CC(=O)[O][Lu]([O]1)[O]C(=O)C3; NH(1-deoxy-D-glucityl) = OC[C@@H](O)[C@@H](O)[C@H](O)[C@@H](O)CN*; DOTA = O=C(O)CN1CCN(CC(=O)O)CCN(CC(=O)*)CCN(CC(=O)O)CC1; Trp(5-Cl) = N[C@@H](Cc1c[nH]c2ccc(Cl)cc12)C(=O)O; Pyridine(2,6-diCH2) = c1cc(C[*:1])nc(C[*:2])c1; Pro(4R-NH2) = N[C@H]1CN[C@H](C(=O)O)C1; 1Nal = N[C@@H](Cc1cccc2ccccc12)C(=O)O; mXylylene = c1cc(C[*:1])cc(C[*:2])c1; Bta = N[C@@H](Cc1csc2ccccc12)C(=O)O; Glutaryl = O=C(CCCC(=O)[*:2])[*:1]; Hyp = O=C(O)[C@@H]1C[C@@H](O)CN1; X1 = O=C(CN1CCC(N[*:1])CC1)[*:2]; Suc = O=C(CCC(=O)[*:2])[*:1]; Api = NC1(C(=O)O)CCNCC1; Aib = CC(C)(N)C(=O)O
# Target: T1, GIPR (CHO-K1-hGIPR cells) (Homo sapiens, UniProt P48546)
# T1 construct: host or cells: CHO-K1
# T1 sequence (P48546 22-466): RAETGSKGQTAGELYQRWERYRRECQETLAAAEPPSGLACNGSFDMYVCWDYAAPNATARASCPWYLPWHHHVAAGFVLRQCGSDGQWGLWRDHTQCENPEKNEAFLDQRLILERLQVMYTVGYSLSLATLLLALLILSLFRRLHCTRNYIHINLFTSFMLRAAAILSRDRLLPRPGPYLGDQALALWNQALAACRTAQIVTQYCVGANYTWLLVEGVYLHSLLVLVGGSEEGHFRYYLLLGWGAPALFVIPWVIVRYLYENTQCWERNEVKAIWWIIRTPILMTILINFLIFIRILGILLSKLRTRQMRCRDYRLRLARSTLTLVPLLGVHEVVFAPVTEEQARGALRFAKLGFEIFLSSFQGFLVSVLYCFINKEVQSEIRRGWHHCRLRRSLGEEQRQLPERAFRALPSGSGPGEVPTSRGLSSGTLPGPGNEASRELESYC
# Test: FACS binding assay
# Details: competition with 20 nM GIP-057, 4° C., 1 hour
# Outline: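 Read-out: flow cytometric median fluorescence intensity, APC/Cy5 channel, plotted vs peptide conc.; 4PL fit → EC50/pEC50 or IC50/pIC50. Cells: CHO-K1-hGIPR, Accutase-detached, 500.000/mL in PBS + 1% FCS. Detection: APC-streptavidin 1 μg/mL, 30 min, on ice.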
row,SMILES,pIC50 Category
1,"CC[C@H](C)[C@@H]1NC(=O)[C@H](CC(C)C)NC(=O)C2(CCN(C(=O)CN3CCN4CCN5CCN(CC3)CC(=O)[O][Lu]([O]C(=O)C5)[O]C(=O)C4)CC2)NC(=O)[C@@H](NC(=O)[C@@H](CC(C)C)NC(=O)[C@H](CCC(=O)O)NC(=O)[C@@H]2C[C@@H](N)CN2C(=O)[C@H](Cc2c[nH]c3ccc(Cl)cc23)NC(=O)[C@H](Cc2c[nH]c3ccccc23)NC(=O)[C@H](CC(=O)O)NC(=O)CCCC(=O)NC[C@H](O)[C@@H](O)[C@H](O)[C@H](O)CO)CSCc2cccc(n2)CSC[C@@H](C(=O)NC2CCN(CC(=O)N[C@H](CCC(=O)NC[C@H](O)[C@@H](O)[C@H](O)[C@H](O)CO)C(N)=O)CC2)NC1=O [GIP-067, AGLU-Glutar-Asp-Trp-5Clw-Tap-Glu-leu-[Cys(2Lut)-Apc(LuDOTA)-Leu-Ile-Cys]-APAc-glu(AGLU)-NH2] ({NH(1-deoxy-D-glucityl)-Glutaryl}-DW[Trp(5-Cl)][Pro(4R-NH2)]E[dL]C[Api](DOTA(Lu))LIC[X1][dE](NH(1-deoxy-D-glucityl))-NH2; linker 7-11 via Pyridine(2,6-diCH2))",A (pIC50 values>8.0)

# Same assay, conditions: competition with 20 nM GIP-057, 4° C., 1 hour, read-out: pIC50 Category (converted)
row,SMILES,IC50 [nM]
1,"CC[C@H](C)[C@@H]1NC(=O)[C@H](CC(C)C)NC(=O)C2(CCN(C(=O)CN3CCN4CCN5CCN(CC3)CC(=O)[O][Ga]([O]C(=O)C5)[O]C(=O)C4)CC2)NC(=O)[C@@H](NC(=O)[C@@H](CC(C)C)NC(=O)[C@H](CCC(=O)O)NC(=O)[C@@H]2C[C@@H](O)CN2C(=O)[C@H](Cc2c[nH]c3ccc(Cl)cc23)NC(=O)[C@H](Cc2c[nH]c3ccccc23)NC(=O)[C@H](CC(=O)O)NC(=O)CCCC(=O)NC[C@H](O)[C@@H](O)[C@H](O)[C@H](O)CO)CSCc2cccc(n2)CSC[C@@H](C(=O)NC2CCN(CC(=O)N[C@H](CCC(=O)NC[C@H](O)[C@@H](O)[C@H](O)[C@H](O)CO)C(N)=O)CC2)NC1=O [GIP-070, AGLU-Glutar-Asp-Trp-5Clw-Hyp-Glu-leu-[Cys(2Lut)-Apc(GaDOTA)-Leu-Ile-Cys]-APAc-glu(AGLU)-NH2] ({NH(1-deoxy-D-glucityl)-Glutaryl}-DW[Trp(5-Cl)][Hyp]E[dL]C[Api](DOTA(Ga))LIC[X1][dE](NH(1-deoxy-D-glucityl))-NH2; linker 7-11 via Pyridine(2,6-diCH2))",< 10
2,"CC[C@H](C)[C@@H]1NC(=O)[C@H](CC(C)C)NC(=O)C(C)(C)NC(=O)[C@@H](NC(=O)[C@H](CC(C)C)NC(=O)[C@H](CCC(=O)O)NC(=O)[C@@H]2CCCN2C(=O)[C@H](Cc2csc3ccccc23)NC(=O)[C@H](Cc2c[nH]c3ccccc23)NC(=O)[C@H](CC(=O)O)NC(C)=O)CSCc2cccc(c2)CSC[C@@H](C(=O)NCCCOCCOCCOCCCNC(=O)CCC(=O)N[C@@H](CCCCNC(=O)CN2CCN(CC(=O)O)CCN(CC(=O)O)CCN(CC(=O)O)CC2)C(N)=O)NC1=O [GIP-075, Ac-Asp-Trp-Bta-Pro-Glu-Leu-[Cys(3MeBn)-Aib-Leu-Ile-Cys]-Ttds-Lys(DOTA)-NH2] (Ac-DW[Bta]PELC[Aib]LIC-X5; linker 7-11 via mXylylene)",< 10

# Further lines, results first:
row,IC50 [nM],SMILES
1,< 10,"CC[C@H](C)[C@@H]1NC(=O)[C@H](CC(C)C)NC(=O)C2(CCN(C(=O)CCCC(=O)NC[C@H](O)[C@@H](O)[C@H](O)[C@H](O)CO)CC2)NC(=O)[C@@H](NC(=O)[C@@H](CC(C)C)NC(=O)[C@H](CCC(=O)O)NC(=O)[C@@H]2C[C@@H](O)CN2C(=O)[C@H](Cc2c[nH]c3ccc(Cl)cc23)NC(=O)[C@H](Cc2c[nH]c3ccccc23)NC(=O)CCC(=O)O)CSCc2cccc(n2)CSC[C@@H](C(=O)NC2CCN(CC(=O)N[C@@H](CCCCNC(=O)CN3CCN(CC(=O)O)CCN(CC(=O)O)CCN(CC(=O)O)CC3)C(N)=O)CC2)NC1=O [GIP-073, HO-Succinyl-Trp-5Clw-Hyp-Glu-leu-[Cys(2Lut)-Apc(AGLU-Glutar)-Leu-Ile-Cys]-APAc-Lys(DOTA)-NH2] (Suc-W[Trp(5-Cl)][Hyp]E[dL]C[Api]([Glutaryl-NH(1-deoxy-D-glucityl)])LIC[X1]K(DOTA)-NH2; linker 6-10 via Pyridine(2,6-diCH2))"
2,< 10,"CC[C@H](C)[C@@H]1NC(=O)[C@H](CC(C)C)NC(=O)C(C)(C)NC(=O)[C@@H](NC(=O)[C@H](CC(C)C)NC(=O)[C@H](CCC(=O)O)NC(=O)[C@@H]2CCCN2C(=O)[C@H](Cc2cccc3ccccc23)NC(=O)[C@H](Cc2c[nH]c3ccccc23)NC(=O)[C@H](CC(=O)O)NC(C)=O)CSCc2cccc(c2)CSC[C@@H](C(=O)NCCCOCCOCCOCCCNC(=O)CCC(=O)N[C@@H](CCCCNC(=O)CN2CCN(CC(=O)O)CCN(CC(=O)O)CCN(CC(=O)O)CC2)C(N)=O)NC1=O [GIP-074, Ac-Asp-Trp-1Ni-Pro-Glu-Leu-[Cys(3MeBn)-Aib-Leu-Ile-Cys]-Ttds-Lys(DOTA)-NH2] (Ac-DW[1Nal]PELC[Aib]LIC-X5; linker 7-11 via mXylylene)"

# Source: patent publication US20250296971A1, “GASTRIC INHIBITORY PEPTIDE RECEPTOR LIGANDS” (priority 2021, published 2025)
